US12564190B2, “Biobased herbicide enhancer agent and method for using the same” (priority 2021, dated 2026)

Tests used:
Assay type in all cases: in vivo
Echinochloa colona = assay: Herbicide activity on Echinochloa colona plants, visual evaluation 20 days after treatment; conditions: E. colona, 20 DAT, application rate 110 g a.i. ha^−1
From the text: Echinochloa colona is a cosmopolitan weed common in crops (mainly rice, maize and vegetables), gardens, roadsides, disturbed sites, waste areas and pastures. It also grows along waterways, on the margins of lakes and ponds, in swamps and wetlands, and in other damp habitats. It has the potential to invade natural areas and completely outcompete native vegetation. This weed pose a significant threat to rice productivity globally and are usually reported as noxious weeds in several economically important crops around the world. E. colona has vigorous growth traits and high seed production since each E. colona plant can produce up to 42,000 seeds. The experiment in Echinochloa colona plants was carried out in independent pots and in four replications. […] The products were applied by spraying. The herbicide activity was visually evaluated 20 days after treatment.

Lemna minor = assay: Herbicide activity on Lemna minor in vitro, fresh weight reduction after one week; conditions: fresh weight reduction compared to untreated plants, 7-day exposure, all chemicals 10 mg/L
Protocol: The experiment was carried out in Lemna minor growing in vitro conditions. Lemna minor (duckweed) was bought in the local market. A stock culture was maintained on modified Hoagland medium in a controlled environment. The pH of the medium was adjusted to 6.0, and the plants were grown under static conditions in a plant growth chamber at 25±2° C., light/dark regime of 16 h/8 h.
For the experiments, fronds free from any visible chlorosis were taken from the stock cultures and exposed to the appropriate treatment. For each treatment, we used six repetitions with three fronds per repetition as the initial frond number. Individual fronds were transferred to a 12 well multiplate containing Hoagland medium (control), Hoagland medium containing polyferulates, herbicides or the combination as shown in Table 9. All chemicals were evaluated at the same concentration (10 mg/L). The multiplate was covered with a transparent cover to prevent evaporation. The herbicide activity was evaluated as fresh weight reduction compared to untreated plants after one week of incubation in the described conditions.

potato plants = assay: Desiccation of potato plants, field plots, visual evaluation 15 days after treatment; conditions: three herbicides tested
From the text: The desiccant was applied by spraying.

Compound	Herbicide activity (Echinochloa colona)	Herbicide activity (Lemna minor) [%]	Effect in combination with the herbicides tested (synergism or antagonism according to Colby) (potato plants)
CCCC(=NOCC(C)Oc1ccc(Cl)cc1)C1=C(O)CC(C2CCCSC2)CC1=O (stereo not shown) [Profoxydim]	34	45	–
COc1cc(/C=C/C(=O)O)ccc1O [Ferulic acid, (2E)-3-(4-hydroxy-3methoxyphenyl) prop-2-enoic acid]	–	–	antagonist
CCOC1Oc2ccc(OS(C)(=O)=O)cc2C1(C)C (stereo not shown) [Ethofumesate]	–	0	–
Diferulic acid	–	–	antagonist
COC(=O)c1cccc(C)c1S(=O)(=O)NC(=O)Nc1nc(OCC(F)(F)F)nc(N(C)C)n1 [Triflusulfuron-methyl]	–	34	–
COC(=O)Nc1cccc(OC(=O)Nc2cccc(C)c2)c1 [Phenmedipham]	–	3	–
